Data taken from patent US9145405B2, “Oxadiazole compound and preparation method thereof, pharmaceutical composition and use thereof” (SHANGHAI JIAO TONG UNIVERSITY, priority 2011, dated 2015).
≈ marks a conversion by molar mass, not a printed value. Like-named read-outs stand apart in the source and are kept apart here.

Tests used:
Vero cells = experiment: Toxicity (half toxic concentration) in the anti-Cox_B3 test on Vero cells; format: cell-based
Cox_B3 virus = experiment: Anti-Cox_B3 test: inhibition of cytopathic effect (CPE) in infected Vero cells, Reed-Muench; format: cell-based; details: Cox_B3 virus in Vero cells, CPE, Reed-Muench method; for IC50: read-out: IC50 (half-inhibitory concentration for viruses)
Description: The present examples verifies experimental results of anti-Cox_B3 of the compounds 1-137of the present invention, Pleconaril, 3-[3,5-dimethyl-4-[5-(3-methy-1,2-oxazolyl)propoxy]phenyl]-5-(trifluonomethyl) -1,2,4-oxadiazole is used as positive control.

Row | Structure (SMILES) | IC50 (Cox_B3 virus) | IC50 (half-inhibitory concentration for viruses) (Cox_B3 virus) | TC50 (half of the toxic concentration) (Vero cells; Vero cells, Cox_B3) | TC50 (half of the toxic concentration) (Vero cells)
1 | Cc1cc(-c2noc(C(F)(F)F)n2)cc(C)c1OCCOc1cc(C(F)(F)F)no1 [Compound 5, 3-[3,5-dimethyl-4-[2-(3-trifluoromethylisoxazole-5-oxy)ethoxyl]phenyl]-5-(trifluoromethyl)-1,2,4-oxadiazole] | 0.05 µg/mL (≈ 0.114 µM) |  | 40.12 µg/mL | 
2 | COC(=O)c1cc(OCCCOc2c(C)cc(-c3noc(C(F)(F)F)n3)cc2C)no1 [Compound 7, 3-[3-[2,6-dimethyl-4-[5-(trifluoromethyl)-1,2,4-oxadiazole-3-yl]phenoxyl]propoxy]-isoxazole-5-carboxylate] |  | 0.24 µg/mL |  | 36.48 µg/mL
3 | Cc1cc(OCCCOc2c(C)cc(-c3noc(C(F)(F)F)n3)cc2C)on1 [Compound 8, 3-[3,5-dimethyl-4-[3-(3-methylisoxazole-5-oxy)propoxy]phenyl]-5-(trifluoromethyl)-1,2,4-oxadiazole] | 0.021 µg/mL (≈ 0.0528 µM) |  | 52.38 µg/mL | 
4 | Cc1cc(OCCOc2c(C)cc(-c3noc(C(F)(F)F)n3)cc2C)ns1 [Compound 10, 3-[3,5-dimethyl-4-[2-(5-methylisothiazole-3-oxy)ethoxyl]phenyl]-5-(trifluoromethyl)-1,2,4-oxadiazole] | 0.042 µg/mL (≈ 0.105 µM) |  | 46.47 µg/mL | 
5 | Cc1cc(OCCCOc2c(C)cc(-c3noc(C(F)(F)F)n3)cc2C)ns1 [Compound 11, 3-[3,5-dimethyl-4-[3-(5-methylisothiazole-3-oxy)propoxy]phenyl]-5-(trifluoromethyl)-1,2,4-oxadiazole] | 0.058 µg/mL (≈ 0.14 µM) |  | 45.87 µg/mL | 
6 | Cc1c[nH]c(OCCOc2c(C)cc(-c3noc(C(F)(F)F)n3)cc2C)n1 [Compound 12, 3-[3,5-dimethyl-4-[2-(4-methylimidazole-2-oxy)ethoxyl]phenyl]-5-(trifluoromethyl)-1,2,4-oxadiazole] | 0.12 µg/mL (≈ 0.314 µM) |  | 40.27 µg/mL | 
7 | Cc1csc(OCCOc2c(C)cc(-c3noc(C(F)(F)F)n3)cc2C)n1 [Compound 13, 3-[3,5-dimethyl-4-[2-(4-methylthiazole-2-oxy)ethoxyl]phenyl]-5-(trifluoromethyl)-1,2,4-oxadiazole] | 0.15 µg/mL (≈ 0.376 µM) |  | 38.68 µg/mL | 
8 | Cc1cc(OCCOc2c(C)cc(-c3noc(C(F)(F)F)n3)cc2C)[nH]n1 [Compound 15, 3-[3,5-dimethyl-4-[2-(3-methyl-1H-pyrazole-5-oxy)ethoxyl]phenyl]-5-(trifluoromethyl)-1,2,4-oxadiazole] | 0.12 µg/mL (≈ 0.314 µM) |  | 42.38 µg/mL | 
9 | Cc1cc(-c2noc(C(F)(F)F)n2)cc(C)c1OCCOc1cc(C(F)(F)F)nn1C [Compound 16, 3-[3,5-dimethyl-4-[2-[1-methyl-3-(trifluoromethyl)-1H-pyrazole-5-oxy]ethoxyl]phenyl]-5-(trifluoromethyl)-1,2,4-oxadiazole] | 0.09 µg/mL (≈ 0.2 µM) |  | 41.38 µg/mL | 
10 | Cc1cc(-c2noc(C(F)(F)F)n2)cc(C)c1OCCOc1cc(C(=O)O)nn1C [Compound 17, 5-[2-[2,6-dimethyl-4-[5-(trifluoromethyl)-1,2,4-oxadiazole-3-yl]phenoxyl]ethoxyl]-1-methyl-1H-pyrazole-3-carboxylic acid] | 0.07 µg/mL (≈ 0.164 µM) |  | 44.39 µg/mL | 
11 | Cc1cc(-c2nc(C(F)(F)F)no2)cc(C)c1OCCOc1noc(C(F)(F)F)n1 [Compound 22] |  | 0.08 µg/mL |  | 40.78 µg/mL
12 | Cc1nnc(OCCOc2c(C)cc(-c3noc(C(F)(F)F)n3)cc2C)[nH]1 [Compound 24, 3-[2-[2,6-dimethyl-4-[5-(trifluoromethyl)-1,2,4-oxadiazole-3-yl]phenoxyl]ethoxyl]-5-methyl-4H-1,2,4-triazole] | 0.03 µg/mL (≈ 0.0783 µM) |  | 42.23 µg/mL | 
13 | Cc1cc(-c2noc(C(F)(F)F)n2)cc(C)c1OCCOC(C)(C)C [Compound 36, 3-[3,5-dimethyl-4-[(2-tert-butoxy)ethoxyl]phenyl]-5-(trifluoromethyl)-1,2,4-oxadiazole] | 0.13 µg/mL (≈ 0.363 µM) |  | 40.12 µg/mL | 
14 | CCON=Cc1ccc(OCCOc2c(C)cc(-c3noc(C(F)(F)F)n3)cc2C)cn1 [Compound 44, 6-[2,6-dimethyl-4-[(5-(trifluoromethyl)-1,2,4-oxadiazole-3-yl)phenoxyl]ethoxyl]pyridine-2-oxy-ethylketoxime] |  | 0.078 µg/mL |  | 34.35 µg/mL
15 | Cc1cc(-c2noc(C(F)(F)F)n2)cc(C)c1OCCOC(C)(C)C [Compound 90, 3-[3,5-dimethyl-4-[(2-tert-butoxy)ethoxyl]phenyl]-5-(trifluoromethyl)-1,2,4-oxadiazole] |  | 0.15 µg/mL |  | 38.28 µg/mL

Continued, in another order:

Row | IC50 (Cox_B3 virus) | IC50 (half-inhibitory concentration for viruses) (Cox_B3 virus) | Structure (SMILES) | TC50 (half of the toxic concentration) (Vero cells; Vero cells, Cox_B3) | TC50 (half of the toxic concentration) (Vero cells)
16 | 0.09 µg/mL (≈ 0.225 µM) |  | Cc1nnc(SCCOc2c(C)cc(-c3noc(C(F)(F)F)n3)cc2C)[nH]1 [Compound 25, 3-[2-[2,6-dimethyl-4-[5-(trifluoromethyl)-1,2,4-oxadiazole-3-yl]phenoxyl]ethylthio]-5-methyl-4H-1,2,4-triazole] | 40.21 µg/mL | 
17 | 0.06 µg/mL (≈ 0.132 µM) |  | Cc1cc(-c2noc(C(F)(F)F)n2)cc(C)c1OCCSc1nnc(C(F)(F)F)[nH]1 [Compound 26, 3-[2-[2,6-dimethyl-4-[5-(trifluoromethyl)-1,2,4-oxadiazole-3-yl]phenoxyl]ethylthio]-5-trifluoromethyl-4H-1,2,4-triazole] | 38.35 µg/mL | 
18 | 0.07 µg/mL (≈ 0.169 µM) |  | Cc1cc(-c2noc(C(F)(F)F)n2)cc(C)c1OCCSc1nnc(C)n1C [Compound 27, 3-[2-[2,6-dimethyl-4-[5-(trifluoromethyl)-1,2,4-oxadiazole-3-yl]phenoxyl]ethylthio]-4,5-dimethyl-4H-1,2,4-triazole] | 39.25 µg/mL | 
19 | 0.11 µg/mL (≈ 0.286 µM) |  | Cc1nnc(OCCOc2c(C)cc(-c3noc(C(F)(F)F)n3)cc2C)o1 [Compound 28, 3-[3,5-dimethyl-4-[2-[5-methyl-1,3,4-oxadiazole-2-oxy]ethoxyl]phenyl]-5-(trifluoromethyl)-1,2,4-oxadiazole] | 32.36 µg/mL | 
20 | 0.08 µg/mL (≈ 0.176 µM) |  | Cc1cc(-c2noc(C(F)(F)F)n2)cc(C)c1OCCOc1nnc(C(F)(F)F)s1 [Compound 30, 3-[3,5-dimethyl-4-[2-[5-trifluoromethyl-1,3,4-thiadiazole-2-oxy]ethoxyl]phenyl]-5-(trifluoromethyl)-1,2,4-oxadiazole] | 34.39 µg/mL | 
21 | 0.023 µg/mL (≈ 0.0522 µM) |  | Cc1cc(-c2noc(C(F)(F)F)n2)cc(C)c1OCCOc1ncc(C(=O)O)c(O)n1 [Compound 32, 2-[2-[2,6-dimethyl-4-[5-(trifluoromethyl)-1,2,4-oxadiazole-3-yl]phenoxyl]ethoxyl]-4-hydroxyl-pyrimidine-5-carboxylic acid] | 40.28 µg/mL | 
22 | 0.12 µg/mL (≈ 0.268 µM) |  | Cc1cc(-c2noc(C(F)(F)F)n2)cc(C)c1OCCOc1nccc(C(F)(F)F)n1 [Compound 33, 2-[2-[2,6-dimethyl-4-[5-(trifluoromethyl)-1,2,4-oxadiazole-3-yl]phenoxyl]ethoxyl]-4-(trifluoromethyl) pyrimidine] | 35.28 µg/mL | 
23 | 0.11 µg/mL (≈ 0.237 µM) |  | Cc1cc(-c2noc(C(F)(F)F)n2)cc(C)c1OCCSc1nccc(C(F)(F)F)n1 [Compound 34, 2-[2-[2,6-dimethyl-4-[5-(trifluoromethyl)-1,2,4-oxadiazole-3-yl]phenoxyl]ethylthio]-4-(trifluoromethyl) pyrimidine] | 33.28 µg/mL | 
24 | 0.056 µg/mL (≈ 0.136 µM) |  | Cc1ccc(OCCOc2c(C)cc(-c3noc(C(F)(F)F)n3)cc2C)c(F)c1 [Compound 39, 3-[3,5-dimethyl-4-[(2-fluoro-4-methylphenoxyl)ethoxyl]phenyl]-5-(trifluoromethyl)-1,2,4-oxadiazole] | 44.28 µg/mL | 
25 | 0.044 µg/mL (≈ 0.103 µM) |  | COc1ccc(OCCOc2c(C)cc(-c3noc(C(F)(F)F)n3)cc2C)c(F)c1 [Compound 40, 3-[3,5-dimethyl-4-[(2-fluoro-4-methoxyphenoxyl)ethoxyl]phenyl]-5-(trifluoromethyl)-1,2,4-oxadiazole] | 45.39 µg/mL | 
26 | 0.033 µg/mL (≈ 0.0748 µM) |  | Cc1cc(-c2noc(C(F)(F)F)n2)cc(C)c1OCCOc1ccc([N+](=O)[O-])cc1F [Compound 41, 3-[3,5-dimethyl-4-[(2-fluoro-4-nitrophenoxyl)ethoxyl]phenyl]-5-(trifluoromethyl)-1,2,4-oxadiazole] | 46.89 µg/mL | 
27 | 0.033 µg/mL (≈ 0.0738 µM) |  | Cc1cc(-c2noc(C(F)(F)F)n2)cc(C)c1OCCOc1c(Cl)cccc1Cl [Compound 42, 3-[3,5-dimethyl-4-[(2,6-dichlorophenoxyl)ethoxyl]phenyl]-5-(trifluoromethyl)-1,2,4-oxadiazole] | 36.89 µg/mL | 
28 | 0.044 µg/mL (≈ 0.0984 µM) |  | Cc1cc(-c2noc(C(F)(F)F)n2)cc(C)c1OCCOc1ccc(Cl)cc1Cl [Compound 43, 3-[3,5-dimethyl-4-[(2,4-dichlorophenoxyl)ethoxyl]phenyl]-5-(trifluoromethyl)-1,2,4-oxadiazole] | 35.66 µg/mL | 
29 |  | 0.096 µg/mL | COC(=O)c1cnc(OCCOc2c(C)cc(-c3noc(C(F)(F)F)n3)cc2C)c(F)c1 [Compound 49, 6-[2,6-dimethyl-4-[(5-(trifluoromethyl)-1,2,4-oxadiazole-3-yl)phenoxyl]ethoxyl]-5-fluoro-3-pyridinecarboxylate] |  | 35.36 µg/mL
30 |  | 0.07 µg/mL | COC(=O)c1cnc(OCCOc2c(C)cc(-c3noc(C)n3)cc2C)c(F)c1 [Compound 103] |  | 39.55 µg/mL
